From US7404962B1, “Combination kit used in the treatment of malaria” (Nicholas Piramal India Limited, priority 2000, dated 2008)
Like-named read-outs stand apart in the source and are kept apart here.

Key:
[1] = Methemoglobin toxicity study in healthy human volunteers; assay type: in vivo
Experimental: 3-[1-[[4-[(6-methoxy-8-quinolinyl)amino]pentyl]amino]ethylidene]-dihydro-2(3H)furanone (I) was evaluated vis-à-vis primaquine for toxicity related to methemoglobin formation in human.
The methemoglobin toxicity of compound I was evaluated via-à-vis that of primaquine in normal human volunteers.

[2] = tested on: P. vivax; experiment: Clinical evaluation of the combination kit in patients, one year surveillance study; assay type: in vivo, human; settings: compound I 25 mg vs primaquine 15 mg, each with chloroquine
Experimental: The efficacy of the combination kit of the present invention, containing compound I (25 mg) was clinically evaluated and compared with primaquine (15 mg) used in combination with chloroquine in a group of patients over a one year surveillance study.

[3] = literature, cited from earlier work
[4] = tested on: P. cynomolgi; experiment: Radical curative activity against P. cynomolgi in rhesus monkeys; assay type: in vivo
Experimental: The radical curative anti-malarial activity and toxicity of the compound I was evaluated and compared with that caused by primaquine.
Combination regimen of chloroquine and 3-[1-[[4-[(6-methoxy-8-quinolinyl)amino]pentyl]amino]ethylidene]-dihydro-2(3H)furanone(I) tested against P. cynomolgi in rhesus monkeys.
The therapeutic effect of the combination regimen consisting of chloroquine and 3-[1-[[4-[(6-methoxy-8-quinolinyl)amino]pentyl]amino]-ethylidene]-4,5-dihydro-2(3H)furanone (I) was tested against P. cynomolgi in rhesus monkeys. 3-[1-[[4-[(6-methoxy-8-quinolinyl)-amino]pentyl]amino]ethylidene]-dihydro-2(3H)furanone(I) was administered in the dose level of 4.00 mg/kg (to 3 monkeys), 3.00 mg/kg (to 3 monkeys), 2.50 mg/kg (to 4 monkeys), 2.00 mg/kg (to 3 monkeys) and 1.25 mg/kg (to 9 monkeys) for 7 days. Chloroquine was administered as a companion drug at 5 mg/kg (base) dose. Minimum curative dose of compound I was found 1.25 mg/kg in 9 monkeys.

[5] = literature; cited from earlier work
[6] = tested on: anti-oxidant defense enzymes; settings: literature; cited from earlier work

Row | SMILES | methemoglobin level after dosing ([1]; healthy human volunteers, 15 mg daily for 7 days) [%] | methemoglobin level before dosing ([1]; healthy human volunteers, starting level) [%] | radical curative activity versus primaquine [2] | anti-relapse activity versus primaquine [3] | anti-relapse activity versus primaquine ([3]; listed as compound of formula (I)) | curative effect at doses higher than 1.25 mg/kg ([4]; 2.0, 2.50, 3.00 and 4.00 mg/kg (base) for 7 days, chloroquine 5 mg/kg (base)) | Minimum curative dose ([4]; 9 rhesus monkeys, 7 days, chloroquine companion drug at 5 mg/kg (base)) [mg/kg] | blood smears after stopping the treatment ([4]; all monkeys observed over a period of 100 days) | curative ([4]; rhesus monkeys, 7 days, dose range 1.25 mg/kb to 4 mg/kg) [%] | relapse after stopping the treatment ([4]; rhesus monkeys, up to 100 days after stopping the treatment) | methemoglobin formation / toxicity versus primaquine [5] | toxicity versus primaquine [5] | methemoglobin level before dosing ([1]; human, in vivo) [%] | effect on anti-oxidant defense enzymes versus primaquine [6]
1 | COc1cc(NC(C)CCCN)c2ncccc2c1 (stereo not shown) [primaquine, reference compound] | 16.23 | 3.97 | – | – | – | – | – | – | – | – | – | – | – | –
2 | COc1cc(NC(C)CCCN/C(C)=C2/CCOC2=O)c2ncccc2c1 (stereo not shown) [compound I, 3-[1-[[4-[(6-methoxy-8-quinolinyl)amino]pentyl]amino]ethylidene]-dihydro-2(3H)-furanone] | – | – | as effective as primaquine | comparable to Primaquine | comparable to primaquine | curative | 1.25 | remained negative | 100 | no relapse observed | less methemoglobin formation | safer and less toxic | 2.29 | less effect on anti-oxidant defense enzymes than primaquine
3 | COc1cc(C)c2c(Oc3cccc(C(F)(F)F)c3)c(OC)cc(NC(C)CCCN)c2n1 (stereo not shown) [tafenoquine, reference compound] | – | – | – | more effective than primaquine | – | – | – | – | – | – | almost three times more than that of primaquine | – | – | –
